According to US20240285670A1, “THERAPEUTIC TREATMENT OF TUMORS BY BLOCKING THE HEME SYNTHESIS-EXPORT AXIS” (Università degli Studi di Torino, priority 2021, published 2024):

Tested on: Caco2 cells
Test: Intracellular 5-ALA levels and 13C-isotope labelling (LC-MS) in Caco2 cells
Format: cell-based, human
Description: (A) Heme content in Caco2 cells treated with 5 mM 5-ALA (black bars and white bars) or with 5 mM 5-ALA+0.5 mM SA (light grey outlined bars) for the indicated time points. […] Values are expressed as relative fluorescence intensity. Data represent mean±SEM, n=2. For statistical analyses, a two-way analysis of variance was used, followed by the Bonferroni correction for multiple group comparisons; **=p<0.01, ***=p<0.001. 5-ALA, 5-aminolevulinic acid; SA, succinylacetone. (B) Intracellular 5-ALA levels. […] Values are expressed as peak area/μg proteins. Data represent mean±SEM of n=4 wells pooled from two independent experiments. For statistical analyses, an unpaired Student's t-test was used; **=p<0.01. 5-ALA, 5-aminolevulinic acid. (C, D) Accumulation of ^13C2-5-ALA in cells incubated with U-^13C-glucose (C) or of ^13C3-5-ALA in cells incubated with U-^13C-glutamine (D) for the indicated time. […] Values are expressed as peak area/μg proteins. Data represent mean±SEM of n=4 wells pooled from two independent experiments. For statistical analyses, a two-way analysis of variance was used, followed by the Bonferroni correction for multiple group comparisons; ***p<0.001. […] Transcript abundance, normalized to beta-actin mRNA expression, is expressed as a fold increase over a calibrator sample. […] Band intensities were measured by densitometry and normalized to vinculin expression. […]

Substance: FLVCR1a shRNA: shRNA specifically down-regulating FLVCR1a without targeting FLVCR1b; pLKO.1 lentiviral clone TRCN0000059599, antisense SEQ ID No.: 2 (antisense TTGCTAATGATGCTGTACTGG; sense CCAGTACAGCATCATTAGCAA)
- Intracellular 5-ALA levels (FLVCR1a-silenced vs scramble shRNA Caco2 cells): lower amount of 5-ALA
- incorporation of labelled carbons in 5-ALA (U-13C-glucose or U-13C-glutamine, time course, FLVCR1a-silenced vs scramble): reduced incorporation of labelled carbons in 5-ALA
